Source: patent US8993762B2, “Total synthesis of thaxtomin A analogues and their intermediates” (Marrone Bio Innovations, Inc, priority 2013, dated 2015)

Key:
mustard plants = assay: Comparison of herbicidal activity, track-sprayer application to mustard plants; format: in vivo; conditions: fifteen day mustard plants; sprayed at 0.25 and 1.0 mg/mL; counted on the 7th and 14th days; four replicates
Protocol: Synthesized thaxtomin A and thaxtomin A from fermentation were separately dissolved in ethanol first (final ethanol concentration in the spraying solution was 2%), then added into 0.2% Glycosperse O-20 water solution. Sonication completely dissolved the thaxtomin A. The concentration of thaxtomin A was 0.25 and 1.0 mg/mL. Water with 2% ethanol and 0.2% Glycosperse O-20 was used as a blank control. Fifteen day mustard plants were used in the experiments. Four replicates for each concentration of thaxtomin A were carried out. Spraying was performed using a Track Sprayer. The herbicidal activity was graded as percent control. Herbicidal activity was counted on the 7th and 14th days, respectively.

plant cells = conditions: Lawrence et al., 1990; cited from earlier work

| Compound | herbicidal activity graded as percent control, synthesized vs natural thaxtomin A (mustard plants) | effect on plant cells (plant cells) |
| --- | --- | --- |
| CN1C(=O)[C@](O)(Cc2cccc(O)c2)N(C)C(=O)[C@@H]1Cc1c[nH]c2cccc([N+](=O)[O-])c12 [Synthesized thaxtomin A, Thaxtomin A] | no significant difference | hypertrophy of plant cells at nanomolar amounts |
| CN1C(=O)[C@](O)(Cc2cccc(O)c2)N(C)C(=O)[C@@H]1Cc1c[nH]c2cccc([N+](=O)[O-])c12 [thaxtomin A from fermentation, thaxtomin A] | no significant difference | – |
